Source: patent publication US6800659B2, “Compounds for modulating cell proliferation” (HSC Research and Development Limited Partnership, priority 2000, dated 2004)
Entries after “also recorded” stand apart in the source; their conditions may differ.

Experiments:
[1] = test system: Philadelphia positive Z119 Acute lymphoblastic leukemia cells; assay: In vivo treatment of Philadelphia positive ALL in NOD-SCID mice
Procedure: NOD-SCID mice were irradiated (350 rads) and injected with 5×10^6 Philadelphia positive Z119 Acute lymphoblastic leukemia cells. After 24 hours Alzet micro-osmotic pumps (Alza Corp. Paolo Alto, Calif.) were implanted subcuntaneously, containing either 20 mM solution of CR4 in 50% DMSO/medium or 50% DMSO/medium alone. Alzet 2001 pumps were utilized, holding a total volume of 200 μl and releasing 1 μl per hour over 7-10 days. Pumps were replaced after 7 days. Each mouse received a daily dose of 0.154 mg of CR4.
After 14 (FIG. 20A) and 21 (FIG. 20B) days mice were sacrificed and bone marrow extracted from the fore and hind limbs. Single cell suspensions were prepared, red blood cells lysed and the samples stained with PE-labelled isotype, anti-human CD19 and anti-human HLA-DR antibodies to detect the presence of Z119 cells.
At d14, bone marrow cell cultures were also performed to assess the presence of Z119 cells 5×10^4 BM cells were cultured in IMDM (OCl, Toronto) containing 0.9% (vol/vol) methylcellulose supplemented with 30% serum consisting of a 1:1 mixture of FCS (Cansera Rexdale, ON.) and normal human plasma. No cytokines are added. Under these conditions there is no growth of murine cells. The culture mixture was plated in 1 ml volumes into 35 mm petri dishes and incubated at 37° C., 5% CO2 in a humidified atmosphere. All cultures were evaluated at 9 days for the number of ALL colonies.

Bcr-Abl = biological target: T1, Bcr-Abl (Homo sapiens, UniProt P00519); assay: Bcr-Abl immunoprecipitate kinase assay (33P-ATP autoradiography); type: biochemical; details: 1 to 10 μM
T1 construct: Philadelphia (Ph+) ALL Lines Z119 and Z181 (5×10^6 Cells/point) Were Lysed and Immunoprecipitated with Bcr-Abl Antibody; BCR (N-terminal part, natural fusion partner from the t(9;22) translocation); endogenous in cells; host or cells: Z119 and Z181 Ph+ ALL cell lines (immunoprecipitate); the other entry of the earlier key: BCR (P11274, Breakpoint cluster region protein)
T1 sequence (P00519 with tags, fused parts or gaps): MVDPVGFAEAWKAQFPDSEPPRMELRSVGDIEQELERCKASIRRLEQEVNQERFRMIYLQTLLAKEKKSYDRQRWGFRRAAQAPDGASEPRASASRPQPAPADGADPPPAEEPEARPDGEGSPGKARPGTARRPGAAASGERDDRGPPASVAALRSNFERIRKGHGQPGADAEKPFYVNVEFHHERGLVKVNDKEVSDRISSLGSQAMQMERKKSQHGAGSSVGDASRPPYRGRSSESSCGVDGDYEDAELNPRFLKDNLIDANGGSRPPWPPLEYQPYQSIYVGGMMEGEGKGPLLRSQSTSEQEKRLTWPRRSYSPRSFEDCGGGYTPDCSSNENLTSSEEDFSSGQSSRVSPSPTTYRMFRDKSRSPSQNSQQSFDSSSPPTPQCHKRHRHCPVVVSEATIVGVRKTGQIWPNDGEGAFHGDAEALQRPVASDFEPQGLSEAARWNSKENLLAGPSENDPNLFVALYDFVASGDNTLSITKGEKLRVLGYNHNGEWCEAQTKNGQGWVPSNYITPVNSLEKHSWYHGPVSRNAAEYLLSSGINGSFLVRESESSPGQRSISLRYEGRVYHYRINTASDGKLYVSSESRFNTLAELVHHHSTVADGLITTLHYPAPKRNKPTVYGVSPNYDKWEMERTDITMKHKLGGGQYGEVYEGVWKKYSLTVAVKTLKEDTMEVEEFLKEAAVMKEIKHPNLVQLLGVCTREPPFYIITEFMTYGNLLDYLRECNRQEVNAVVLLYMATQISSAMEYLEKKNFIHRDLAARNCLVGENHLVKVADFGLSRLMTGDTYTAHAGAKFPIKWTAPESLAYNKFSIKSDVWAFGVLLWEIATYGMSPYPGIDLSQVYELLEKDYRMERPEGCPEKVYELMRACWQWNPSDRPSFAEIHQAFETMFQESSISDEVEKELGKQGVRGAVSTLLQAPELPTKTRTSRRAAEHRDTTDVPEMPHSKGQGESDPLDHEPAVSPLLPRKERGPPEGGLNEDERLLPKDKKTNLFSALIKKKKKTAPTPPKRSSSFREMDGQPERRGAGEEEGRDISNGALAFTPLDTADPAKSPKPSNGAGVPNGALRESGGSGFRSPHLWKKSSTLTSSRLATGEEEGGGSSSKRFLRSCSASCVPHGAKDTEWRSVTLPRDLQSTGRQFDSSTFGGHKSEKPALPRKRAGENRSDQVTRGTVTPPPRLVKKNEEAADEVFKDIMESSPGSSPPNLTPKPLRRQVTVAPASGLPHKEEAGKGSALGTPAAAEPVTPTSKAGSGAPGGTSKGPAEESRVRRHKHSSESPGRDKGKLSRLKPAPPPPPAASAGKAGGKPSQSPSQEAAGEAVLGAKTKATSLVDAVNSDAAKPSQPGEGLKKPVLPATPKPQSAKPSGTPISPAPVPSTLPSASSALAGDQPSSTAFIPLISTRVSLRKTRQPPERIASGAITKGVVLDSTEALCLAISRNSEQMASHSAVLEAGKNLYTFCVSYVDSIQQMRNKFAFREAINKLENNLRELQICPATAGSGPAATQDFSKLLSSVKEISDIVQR
Procedure: Philadelphia (Ph+) ALL Lines Z119 and Z181 (5×10^6 Cells/point) Were Lysed and Immunoprecipitated with Bcr-Abl Antibody
The precipitates were washed twice with lysis buffer and once with kinase assay buffer, and resuspended in same buffer containing varying concentrations of CR4. The precipitates were incubated with the drug for 10 min at room temperature, followed by addition of 10 μCi ^33PγATP. The reaction was stopped after 20 min by the addition of SDS-PAGE reducing sample buffer and separated on an 8-16% SDS-PAGE gel. The products were transferred onto nitrocellulose membrane and visualized by autoradiography.

[2] = daily dose of 0.154 mg by subcutaneous Alzet pump

## N#C/C(=C\C=C\c1ccc(O)c(O)c1)C(=O)NCc1ccccc1 [CR4, (E,E)-2-(benzylaminocarbonyl)-3-(3,4-dihydroxystyryl)acrylonitrile]
[1]; at the doses required to eliminate cancer cell growth
  non-specific toxicity / damage to the animal: do not result in detectable non-specific damage; also recorded: No evidence of non-specific toxicity
[1]; [2]
  ALL infiltration of the organs (liver, kidney, spleen) and peripheral blood: below detectable levels; also recorded: below detection level
  reduction in the infiltration of ALL cells into the bone marrow: 90%
[1]; day 14 and day 21 sacrifices, daily dose of 0.154 mg by subcutaneous Alzet pump (FIGS. 20A, 20B)
  ALL infiltration of the bone marrow relative to control mice: significant reduction
[1]; murine model of human Ph+ ALL
  tumor load and infiltration of the organs by the ALL cells: efficiently reduced
[1]; within a two week period, murine model of human Ph+ ALL
  reduction in ALL infiltration of bone marrow: greater than 90%
Bcr-Abl; immunoprecipitate from Z181 ALL cell line (FIG. 23)
  Bcr-Abl kinase activity: effectively blocked
Bcr-Abl; immunoprecipitate from Z199 ALL cell line (FIG. 23)
  Bcr-Abl kinase activity: effectively blocked
